Measured values from publication doi:10.1101/2022.02.24.481826v2 (biorxiv, 2022).

Molecular target: T1, AMPK4 (Arabidopsis thaliana, UniProt O82514)
T1 sequence (O82514 2-246): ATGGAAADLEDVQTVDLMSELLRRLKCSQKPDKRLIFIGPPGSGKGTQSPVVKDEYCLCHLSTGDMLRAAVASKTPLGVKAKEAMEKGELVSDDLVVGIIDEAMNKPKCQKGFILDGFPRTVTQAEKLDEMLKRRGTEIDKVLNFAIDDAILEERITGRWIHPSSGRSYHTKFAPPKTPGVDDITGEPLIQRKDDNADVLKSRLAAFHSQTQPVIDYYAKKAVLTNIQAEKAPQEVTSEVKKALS
Assay: coupled pyruvate kinase / lactate dehydrogenase assay, […] nm
Format: biochemical
Details: 1 mM AMP, 1 mM ATP

## Nc1ncnc2c1ncn2[C@@H]1O[C@H](COP(=O)(O)O)[C@@H](O)[C@H]1O [AMP]
  coupled pyruvate kinase / lactate dehydrogenase assay, 340 nm: Analogous data for AMPK4
